We go through two substances from US20220015372A1, “BIOLOGICALS AND THEIR USE IN PLANTS” (PIONEER HI-BRED INTERNATIONAL, INC., priority 2018, published 2022).

Assay [1] relates to beet armyworm (Spodoptera exigua; BAW). The assay is described as follows: Medium-sized plant-based assay on corn, BAW. Format: in vivo. The arrangement: key to insect live or dead: live=F; dead=K. On the procedure: (§1) Broths A and B were tested against four insect species in medium insect test units; DBM, FAW, beet armyworm (Spodoptera exigua; BAW), and corn earworm (Helicoverpa zea; CEW). Test units were comprised of 70 cm^3 bases with 35 g of Woodstown Sandy Loam soil (Delmar, Del.) and mustard (Brassicae kaber; 6.5-7 cm), corn (Zea mays; 7-8 cm) or Bush bean (Phaseolus vulgaris; 6-7cm) as host plants for DBM, FAW and BAW, and CEW, respectively. Three concentrations of Broths A and B were tested: 0.25, 0.5 and 1×, with and without the surfactant X-77. Spinetoram was included as a positive control. Untreated controls were also included. Test units were sprayed with 1.2 mL of broth, in triplicate, and subsequently infested with approximately 15-20 stage 1 BAW or FAW larvae, or 30-40 neonate DBM or CEW. Units were kept in controlled conditions of 25° C./70% RH/16:8 h (L:D) photoperiod for six days and then scored. There are two scores given for each treatment, (1) plant damage rating from 0-10, with 0 being no damage and 10 being plant was completely consumed, and (2) insect live or dead (live=F; dead=K). The scores are averages of the three technical replicates. Any treatment with a plant damage score of 3 or less and an insect rating of K was considered to be active.

In another assay the test system is FAW. The assay is described as follows: Medium-sized plant-based assay on corn, FAW. Format: in vivo, Spodoptera frugiperda. Details: key to insect live or dead: live=F; dead=K. As for the experimental part: as §1
Assay [2] has as its system corn earworm (Helicoverpa zea; CEW). Kind of assay: Medium-sized plant-based assay on bush bean, CEW. Type of assay: in vivo. The arrangement: key to insect live or dead: live=F; dead=K. As for the experimental part:
as §1

Assay [3] has as its system Fall Armyworm (FAW, Spodoptera frugiperda). Kind of assay: Lepidoptera diet-based feeding assay, FAW. Format: in vivo. To be noted: serial dilutions of Kings Medium fermentate (depsipeptide 55 ug/ml) in artificial diet. On the procedure:
(§2) Lepidopteran feeding assays (including FAW) were conducted on an artificial diet containing fermented broth in a 96 well plate set up. The broth was incorporated with multi-species Lepidopteran artificial diet (Southland Products Inc., Arkansas) in a ratio of 25 μl test sample and 35 μl of diet. Two to five neonate larvae were placed in each well to feed for 4 days. Results were expressed as positive for larvae reactions such as stunting and/or mortality. Results were expressed as negative if the larvae were similar to the negative control that is fed diet to which the above control broth only has been applied.

In assay [4] the test system is corn earworm (Hehcoverpa zea). The assay is described as follows: Lepidoptera diet-based feeding assay, CEW. Format: in vivo, Helicoverpa zea. To be noted: serial dilutions of Kings Medium fermentate (depsipeptide 55 ug/ml) in artificial diet. As for the experimental part: as §2
The test system of assay [5] is Western Corn Rootworm (WCRW, Diabrotica virgifera virgifera). Kind of assay: Coleoptera diet based feeding assay, WCRW. Conditions: serial dilutions of Kings Medium fermentate (depsipeptide 55 ug/ml) in artificial diet. Type of assay: in vivo. On the procedure:
Western Corn Rootworm (WCRW, Diabrotica virgifera virgifera) bioassays were conducted in a 96 well plate format, mixing 10 μl of test sample with 50 μl molten modified Southern Corn Rootworm diet (Frontier Agricultural Sciences, diet F9800B). WCRW neonates were placed into each well before heat sealed with a Mylar film. Holes are punched in the film to allow air exchange. The assay was run four days at 25° C. in the dark. The plates were then scored for insect mortality and stunting of insect growth. The scores were noted as dead, severely stunted (little or no growth but alive), stunted (growth but not equivalent to controls) or no activity.

The test system of assay [6] is soybean looper (SBL, Pseudoplusia includens). The assay is described as follows: Lepidoptera diet-based feeding assay, SBL. Conditions: serial dilutions of Kings Medium fermentate (depsipeptide 55 ug/ml) in artificial diet. Type of assay: in vivo. On the procedure:
as §2

Assay [7] relates to European corn borer (ECB, Ostrinia nubilalis). Kind of assay: Lepidoptera diet-based feeding assay, ECB. Format: in vivo. To be noted: serial dilutions of Kings Medium fermentate (depsipeptide 55 ug/ml) in artificial diet. On the procedure: as §2
The mark [8] stands for this setting: 0.1 ppm, Table 3 assay without X-77, six days.
The mark [9] stands for this setting: 0.1 ppm, Table 4 assay with X-77, six days.
Where [10] appears, read: 0.2 ppm, Table 3 assay without X-77, six days.
Setting [11] is: 0.2 ppm, Table 4 assay with X-77, six days.
The mark [12] stands for this setting: 2 ppm, Table 3 assay without X-77, six days.
Setting [13] is: 2 ppm, Table 4 assay with X-77, six days.

For the substance Spinetoram, the “insect live or dead” value was “F” in assay [1] (setting [8]); “F” in assay [1] (setting [9]); “F” in assay [1] (setting [10]); “F” in assay [1] (setting [11]); “K” in assay [1] (setting [12]); “F” in assay [1] (setting [13]). Further, the “insect live or dead” value in the assay with FAW (setting [8]) is listed as “F”; in the assay with FAW (setting [9]), “F”; with FAW (setting [10]) it was “K”; with FAW (setting [11]) it was “K”; with FAW (setting [12]), “K”; in the assay with FAW (setting [13]) it was “K”. The “insect live or dead” value in assay [2] (setting [8]), in assay [2] (setting [9]), in assay [2] (setting [10]), in assay [2] (setting [11]), in assay [2] (setting [12]) and in assay [2] (setting [13]) was “K” each time. Besides, the “plant damage rating from 0-10” value was determined as 7 in assay [1] (setting [8]); 7 in assay [1] (setting [9]); 4 in assay [1] (setting [10]); 4 in assay [1] (setting [11]); 0 in assay [1] (setting [12]); 4 in assay [1] (setting [13]). For the same substance, the “plant damage rating from 0-10” value in the assay with FAW (setting [8]) stood at 5; in the assay with FAW (setting [9]) it was 5; with FAW (setting [10]) it was 1; in the assay with FAW (setting [11]) it was 1; in the assay on FAW (setting [12]), 0; in the assay with FAW (setting [13]), 0. The “plant damage rating from 0-10” value in assay [2] (setting [8]) amounted to 1; in assay [2] (setting [9]), 1; in assay [2] (setting [10]) it was 1; in assay [2] (setting [11]), 1; in assay [2] (setting [12]), 0; in assay [2] (setting [13]) it was 0.
FR901375 [depsipeptide]: the “minimal dose to achieve 100% mortality” value in assay [3] was found to be 2 pmm; in assay [4], 11 ppm; in assay [5], 23 ppm; in assay [6], 1 ppm; in assay [7] it was 2 ppm.
